# From PubChem BioAssay AID1963431 (Molecular Pharmacology Branch, DTP, NCI, 2024)
# pIC50: −log10 of the molar value.
# Tested on: Rh18 complex spheroid viability, percent test/control
# Assay: Anticancer human tumor Rh18 cell line growth inhibition [Asc];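 note: spheroids exposed to compound for 7 days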;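 for viability, T/C: 100% = DMSO vehicle control wells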
# Settings: for pIC50: curve of first compound; for viability, T/C: stronger effect = lower value
# Protocol: Multicellular complex tumor spheroid response to apoptosis pathway targeting inhibitors Alrizomadlin, Pelcitoclax, and Dasminapant in combination with a variety of drugs and investigational agents in selected tumor cell lines
# The MDM2 inhibitor alrizomadlin, the Bcl-2/Bcl-xL inhibitor pelcitoclax, and the IAPs inhibitor dasminapant were evaluated both individually and in combination with standard of care and investigational anticancer small molecules within a complex spheroid model of solid tumors. . Complex spheroids include a stromal component modeled by human endothelial cells (HUVEC) and fibroblasts modeled by human mesenchymal stem cells (MSCs). The concentration ranges selected for each drug and investigational agent were based upon clinically achievable concentrations if the clinical Cmax of the agent was known.
# Compounds. The drugs and investigational agents: alrizomadlin (APG-115; NSC831270), pelcitoclax (APG-1252; NSC835773), dasminapant (APG-1387;NSC834197), TAK-243 (NSC785004), copanlisib (NSC809693), olaparib (NSC753686), talazoparib (NSC767125), cobimetinib (NSC 768068), eltanexor (KPT-8602, NSC 794443), abemaciclib (NSC 768073), sotorasib (NSC818433), adagrasib (NSC 831453), MRTX-1133 (NSC 836407), Iadademestat (ORY1001, NSC 806812), and RMC-4630 (NSC839698), were obtained from the NCI Developmental Therapeutics Program Chemical Repository. The FDA-approved anticancer drug set is available from the Developmental Therapeutics Program at https://dtp.cancer.gov/organization/dscb/obtaining/available plates.htm. […] The stock solutions were prepared in dimethyl sulfoxide (DMSO, Sigma-Aldrich, St. Louis, MO, cat. D2650) at 800-fold the tested concentration and stored at -70 degrees C prior to their use. All drugs and investigational agents were tested over a range starting from a high concentration at or near the clinical Cmax and decreasing in half-log increments. If the clinical Cmax for an agent had not been determined, the highest concentration tested was 10 microM.
# The patient-derived cancer (PDC) cell lines include five colon adenocarcinomas: 186277-243-T-J2-PDC, 616215-338-R-J1-PDC, 439559-082-T-J2-PDC, 463943-066-T-J2-PDC, and 519858-162-T-J1-PDC; three pancreatic carcinomas: 323965-272-R-J2-PDC, 521955-158-R6-J3-PDC, and 521955-158-R2-J5-PDC; two uterine sarcomas: 327498-152-R-J2-PDC and 993429-296-R-J1-PDC; two rhabdomyosarcomas: 755483-174-R-J1-PDC and 772245-204-R-J1-PDC; two soft tissue sarcomas: 126254-015-R-J1-PDC and 494315-158-R-J1-PDC; two malignant fibrous histiocytomas: 317291-083-R-J1-PDC and 596521-263-R-J1-PDC; two breast carcinomas: 171881-019-R-J1-PDC and 885512-296-R-J2-PDC; and one ovarian carcinoma: 6556581-035-R-J-PDC were obtained from the NCI PDMR, (https://pdmr.cancer.gov). The established cell lines HSSY-2 synovial sarcoma (RRID:CVCL 8719), SYO-1 synovial sarcoma (RRID:CVCL_7146), MPNST malignant peripheral neural sheath tumor were obtained from the Sloan Kettering Institute. The following established cell lines were purchased from the American Type Culture Collection (ATCC, Manassas, VA), Sor the received from the NCI repository:, PANC-1 pancreatic carcinoma (CRL-1469, RRID:CVCL_0480), OVCAR-5 ovarian carcinoma (RRID:CVCL_1628), OVCAR-8 ovarian carcinoma (RRID:CVCL_1629), , MCF-7 breast carcinoma (CRL-12584, RRID:CVCL_0031), MDA-MB-231 breast carcinoma (CRL-12532, RRID:CVCL_0062), NCI-H1876 small cell lung carcinoma (CRL-5902, RRID:CVCL_1503), NCI-H510A small cell lung carcinoma (HTB-184, RRID:CVCL_1565), NCI-H1417 (CRL-5869, RRID:CVCL_1469), and NCI-H196 small cell lung carcinoma (CRL-5823, RRID:CVCL_1509). Dr. Peter Houghton (Greehey Children's Cancer Research Institute, University of Texas Health Science Center, San Antonio, TX) provided Rh-18 rhabdomyosarcoma (RRID:CVCL_1659). Pooled donor human umbilical vein endothelial cells (HUVEC, Lonza, cat. CC-2519) and human mesenchymal stem cells (hMSC, Lonza, cat. PT-2501) were purchased from Lonza (Walkersville, MD).
# Cell Culture. […]
# [1] = second compound 0.03 µM, first compound 0.00316 µM
# [2] = second compound 0.03 µM, first compound 0.01 µM
# [3] = second compound 0.03 µM, first compound 0.0316 µM
# [4] = second compound 0.03 µM, first compound 0.1 µM
# [5] = second compound 0.0949 µM, first compound 0.00316 µM
# [6] = second compound 0.0949 µM, first compound 0.01 µM
# [7] = second compound 0.0949 µM, first compound 0.0316 µM
# [8] = second compound 0.0949 µM, first compound 0.1 µM
# [9] = second compound 0.3 µM, first compound 0.00316 µM
# [10] = second compound 0.3 µM, first compound 0.01 µM
# [11] = second compound 0.3 µM, first compound 0.0316 µM
# [12] = second compound 0.3 µM, first compound 0.1 µM
# [13] = second compound 0.949 µM, first compound 0.00316 µM
# [14] = second compound 0.949 µM, first compound 0.01 µM
# [15] = second compound 0.949 µM, first compound 0.0316 µM
# [16] = second compound 0.949 µM, first compound 0.1 µM
# [17] = second compound 3 µM, first compound 0.00316 µM
# [18] = second compound 3 µM, first compound 0.01 µM
# [19] = second compound 3 µM, first compound 0.0316 µM
# [20] = second compound 3 µM, first compound 0.1 µM
# [21] = second compound 0.03 µM, first compound 0.316 µM
# [22] = second compound 0.03 µM, first compound 1 µM
# [23] = second compound 0.0949 µM, first compound 0.316 µM
# [24] = second compound 0.0949 µM, first compound 1 µM
# [25] = second compound 0.3 µM, first compound 0.316 µM
# [26] = second compound 0.3 µM, first compound 1 µM
# [27] = second compound 0.949 µM, first compound 0.316 µM
# [28] = second compound 0.949 µM, first compound 1 µM
# [29] = second compound 3 µM, first compound 0.316 µM
# [30] = second compound 3 µM, first compound 1 µM
SMILES,pIC50 (second compound 0.03 µM),pIC50 (second compound 0.0949 µM),pIC50 (second compound 0.3 µM),pIC50 (second compound 0.949 µM),pIC50 (second compound 3 µM),"viability, T/C [1]","viability, T/C [2]","viability, T/C [3]","viability, T/C [4]","viability, T/C [5]","viability, T/C [6]","viability, T/C [7]","viability, T/C [8]","viability, T/C [9]","viability, T/C [11]","viability, T/C [12]","viability, T/C [15]","viability, T/C [16]","viability, T/C [19]","viability, T/C [20]",other results
Cn1ncnc1[C@H]1c2n[nH]c(=O)c3cc(F)cc(c23)N[C@@H]1c1ccc(F)cc1 + CCN1C(C(=O)NC23CCC(C(=O)O)(CC2)CC3)C(c2cccc(Cl)c2F)C2(C(=O)Nc3cc(Cl)ccc32)C12CCCCC2,> 9.50,> 9.50,> 9.50,> 9.50,> 9.50,45.6%,36.1%,39.4%,49%,25.6%,26.6%,25.5%,25.3%,13%,13.3%,13.3%,9.91%,9.54%,8.46%,7.12%,"viability, T/C (second compound 0.03 µM, first compound 0.000316 µM): 39%; viability, T/C (second compound 0.03 µM, first compound 0.001 µM): 36.2%; viability, T/C (second compound 0.0949 µM, first compound 0.000316 µM): 22.7%; viability, T/C (second compound 0.0949 µM, first compound 0.001 µM): 27.1%; viability, T/C (second compound 0.3 µM, first compound 0.000316 µM): 13.3%; viability, T/C (second compound 0.3 µM, first compound 0.001 µM): 15.4%; viability, T/C [10]: 13.1%; viability, T/C (second compound 0.949 µM, first compound 0.000316 µM): 11.1%; viability, T/C (second compound 0.949 µM, first compound 0.001 µM): 11.2%; viability, T/C [13]: 11.7%; viability, T/C [14]: 10.4%; viability, T/C (second compound 3 µM, first compound 0.000316 µM): 9.71%; viability, T/C (second compound 3 µM, first compound 0.001 µM): 9.49%; viability, T/C [17]: 9.33%; viability, T/C [18]: 7.51%"
O=C(c1cc(Cc2n[nH]c(=O)c3ccccc23)ccc1F)N1CCN(C(=O)C2CC2)CC1 + CCN1C(C(=O)NC23CCC(C(=O)O)(CC2)CC3)C(c2cccc(Cl)c2F)C2(C(=O)Nc3cc(Cl)ccc32)C12CCCCC2,> 7.50,> 7.50,> 7.50,> 7.50,> 7.50,–,–,49.4%,38.6%,–,–,26.5%,26.8%,–,14.2%,13.7%,10.5%,11.3%,10.4%,8.17%,"viability, T/C [21]: 43.2%; viability, T/C [22]: 41.7%; viability, T/C (second compound 0.03 µM, first compound 3.16 µM): 40.7%; viability, T/C (second compound 0.03 µM, first compound 10 µM): 46.3%; viability, T/C [23]: 28.7%; viability, T/C [24]: 29%; viability, T/C (second compound 0.0949 µM, first compound 3.16 µM): 25.1%; viability, T/C (second compound 0.0949 µM, first compound 10 µM): 23.7%; viability, T/C [25]: 14.7%; viability, T/C [26]: 12.3%; viability, T/C (second compound 0.3 µM, first compound 3.16 µM): 11.6%; viability, T/C (second compound 0.3 µM, first compound 10 µM): 12.4%; viability, T/C [27]: 10.7%; viability, T/C [28]: 10.2%; viability, T/C (second compound 0.949 µM, first compound 3.16 µM): 9.53%; viability, T/C (second compound 0.949 µM, first compound 10 µM): 9.36%; viability, T/C [29]: 9.35%; viability, T/C [30]: 10.7%; viability, T/C (second compound 3 µM, first compound 3.16 µM): 9%; viability, T/C (second compound 3 µM, first compound 10 µM): 8.64%"
O=C(c1ccc(F)c(F)c1Nc1ccc(I)cc1F)N1CC(O)([C@@H]2CCCCN2)C1 + CCN1C(C(=O)NC23CCC(C(=O)O)(CC2)CC3)C(c2cccc(Cl)c2F)C2(C(=O)Nc3cc(Cl)ccc32)C12CCCCC2,> 8.50,> 8.50,> 8.50,> 8.50,> 8.50,35.4%,36.8%,31.1%,33.5%,22.7%,20.1%,20.1%,13.9%,13%,10.7%,8.42%,9.23%,5.03%,10.8%,2.33%,"viability, T/C [21]: 23.8%; viability, T/C [22]: 6.29%; viability, T/C [23]: 7.94%; viability, T/C [24]: 1.48%; viability, T/C [10]: 11.5%; viability, T/C [25]: 3.11%; viability, T/C [26]: 1.29%; viability, T/C [13]: 9.01%; viability, T/C [14]: 11.2%; viability, T/C [27]: 0.89%; viability, T/C [28]: 0.92%; viability, T/C [17]: 8.3%; viability, T/C [18]: 11.4%; viability, T/C [29]: 0.83%; viability, T/C [30]: 1.01%"
